In assay [1] the test system is mitochondria isolated from SHEP cells. Kind of assay: Mitochondrial membrane potential of isolated mitochondria (DiOC6(3)). It counts as biochemical, human. Particulars: FIG. 7, 12D; for effect of inhibitor on betulinic acid-induced Δψm loss in isolated mitochondria: 50 μM bongkrekic acid or 60 μM zVAD-fmk. The method, then:
For isolation of mitochondria, cells (3×10^5 per sample) were washed twice with ice-cold PBS and resuspended with five volumes of buffer A (50 mM Tris, 1 mM EGTA, 5 mM 2-mercaproethanol, 0.2% BSA, 10 mM KH2PO4, pH 7.6, 0.4 M sucrose) and allowed to swell on ice for 20 min. Cells were homogenized with 30 strokes of a Teflon homogenizer and centrifuged at 10000 g for 10 min at 4° C. The resulting pellets were resuspended in buffer B (10 mM KH2PO4, pH 7.2, […] mannitol, 0.1% BSA). Mitochondria were separated by sucrose gradient (lower layer: 1.6 M sucrose, 10 mM KH2PO4, pH 7.5, 0.1% BSA; upper layer: 1.2 M sucrose, 10 mM KH2PO4, pH 7.5, 0.1% BSA). Interphases containing mitochondria were washed with buffer B at 18000 g for 10 min at 4° C. and the resulting mitochondrial pellets were resuspended in buffer B. For preparation of cytosolic extracts, cells (1×10^8 per sample) were washed twice with ice-cold PBS, resuspended with one volume of buffer A and allowed to swell on ice for 20 min. Cells were homogenized with 30 strokes of a Dounce homogenizer and centrifuged at 15000×g for 15 min ax 4° C. The protein concentration of mitochondria or cytosolic extracts was determined by Bradford method (Bio-Rad). For isolation of nuclei, cells were washed twice in ice-cold PBS, resuspended in 10 volumes of buffer C (10 mM PIPES, pH 7.4, 10 mM KCl, 2 mM MgCl2, 1 mM DDT, 1 mM PMSF, 10 μM cytochalasin B), allowed to swell on ice for 20 min and homogenized using a Teflon homogenizer. Homogenates were layered over 30% sucrose in buffer C and centrifuged at 800 g for 10 min. The resulting nuclear pellets were resuspended in buffer C and washed three times. Nuclei were scored at −80° C. in aliquots of 10^8 nuclei/ml until required. AIF-containing mitochondrial supernatant was prepared as described in Susin et aL, 1997, J. Exp. Med. 186, 5-37 and Susin et al., 1996, J. Exp. Med. 184, 1331-41.
Mitochondria (5×10^5/ml) were treated with 10 μg/ml betulinic acid for 30 min, incubated with 3,3′-dihexyloxacarbocyanide iodide (DiOC6(3), 40 nM, Molecular Probes, Inc., Eugene, Oreg.) for 15 min at 37° C. and analyzed on a flow cytometer (FACS Vantage, Becton Dickinson). As a control, cells were treated with the uncoupling agent carbonyl cyanide m-chlorophenylhydrazone (mCICCP, 200 μM, Sigma).

Assay [2] has as its system SH-EP neuroblastoma cells. Kind of assay: Mitochondrial potential (DiOC6(3)), ROS (HE) and lipid peroxidation (NAO) by flow cytometry. It counts as cell-based, human. To be noted: FIG. 12B. Here is the method:
The cationic lipophilic fluorochrome DiOC6(3)(460 ng/ml, Molecular Probes, Eugene, Oreg.) was used to measure the Δ¥m. HE(126 ng/ml. Molecular probes) was used to determine ROS generation, and NAO (94 ng/ml, Molecular Probes) was used to determine lipid peroxidation. Kroemer et al, 1997, Immunol. Today. 18:44-51. Cells were incubated for 12 min at 37° C. in the presence of the fluorochromes, washed in PBS/1% FCS, and immediately analyzed by flow cytometry (FACScan, Becton Dickinson). DiOC6(3) and NAO fluorescence were recorded in fluorescence 1; He fluorescence was assessed in fluorescence 3. The percentage of cells with low mitochondrial potential or enhanced ROS production was calculated in comparison to untreated control cells.
SH-EP neuroblastoma cells were treated with 10 μg/ml betulinic acid for the indicated times. Cells were stained with the fluorochrome DiOC6(3) to determine ΔΨm and with HE to determine ROS generation and analyzed by flow cytometry. Fold increase in cells with low ΔΨm [DiOC6(3)^low] or with enhanced ROS production (HE+) is shown.
SH-EP neuroblastoma cells treated with 10 μg/ml […] for 24 h (heavy line) or control cells (thin line) were strained with NAO to assess oxidized cardiolipin and analyzed by flow cytomety.
For determination of mitochondrial membrane potential, cells (5×10^5/ml) were incubated with 3,3′-dihexyloxacarbocyanide iodide (DiOC6(3), 40 nM, Molecular Probes, Inc., Eugene, Oreg.) for 15 min at 37° C. and analyzed on a flow cytometer (FACScan) (Zamzarni et al., 1996 J. Exp. Med. 183:1533-44). For cell sorting, cells were stained with DiOC6(3) and sorted into DiOC6(3)^high and DiOC6(3)^low cells on a cytofluorometer (FACS Vantage, Becton Dickinson). As a control, cells were treated with the uncoupling agent carbonyl cyanide m-chlorophenylhydrazone (mCICCP, 200 μM, Sigma).
(§1) SHEP cells transfected with Bcl-2 or BCl-XL or a neomycin resistance vector only (Neo) were treated with 0.5 μg/ml Doxorubicin or 10 μg/ml Betulinic acid for 48 h (A) or 24 h (B and C). Cells transfected with a neomycin resistance vector only (Neo) were treated in the presence or absence of 50 μm BA or 60 μm zVAD-fmk. Nuclear apoptosis was determined by FACS analysis or propidium iodide-stained DNA content in intact cells (A) or in a CFS incubating isolated nuclei with mitochondria from cells treated with Doxo or betulinic acid (C). ΔΨm was determined by staining cells with the potential-sensitive fluorochrome DiOC6(3) (B).
Background: Flow cytometry measures light scatter and fluorescence of single cells or particles in a stream.

The test system of assay [3] is SH-EP neuroblastoma cells. The assay can be described thus: Specific apoptosis, FACS analysis of propidium iodide-stained nuclei. Type of assay: cell-based, human. Particulars: for effect of CD95 blockage by F(ab′)2 anti-APO-1 on drug-induced apoptosis: 10 μg/ml antibody fragments 1 h before drug, 10 μg/ml betulinic acid, 50 μg/ml VP-16, 10 μg/ml cisplatinum, 0.5 μg/ml doxorubicin, 72 h, FIG. 3B. The method, then: Quantification of DNA fragmentation was performed by FACS analysis of propidium iodide stained nuclei as described in Nicoletti et al, 1991, J. Immunol. Methods. 139: 271-279. Cells were analyzed for DNA content by flow. cytometry (FACScan, Becton Dickinson, Heidelberg, Germany) using CELLQuest software. Early apoptotic changes were identified by staining with biotinylated annexin V (Bender Med Systems, Vienna, Austria) following the manufacturer's instructions. Annexin V binds to exposed phosphatidylserine on the surface of apoptotic cells. Koopman et al, 1994, Blood. 84:1415-1420. Cells were analyzed by flow cytometry (FAC-Scan. Becton Dickinson) using CELLQuest software.
Cells were treated with 10 μg/ml betulinic acid for 72 h. Apoptosis was assessed by FACS analysis of propidium iodide-stained nuclei. Percentage of specific apoptosis was calculated as follows: experimental apoptosis (%) −spontaneous apoptosis in medium (%)/[100%−spontaneous apoptosis in medium (%)]×100%. […]
Cells were incubated for indicated times with doxorubicin, betulinic acid or anti-APO-1 and harvested by trypsinization using 0.05% trypsin and 0.02% EDTA without Ca^2+and Mg^2+(Life Technologies, Inc.). Quantification of DNA fragmentation was performed by FACS analysis of propidium iodide stained nuclei as previously described in Nicoletti et al., J. ImmunoL Methods 139:271-279, using CELLQuest software (Becton Dickinson, Heidelberg, Germany).
as §1

Results on three molecules are retold here after US6369109B1, “Betulinic acid and derivatives thereof useful for the treatment of neuroectodermal tumor” (Deutsches Krebsforschungszentrum Stiftung des Offentlichen …, priority 1998, dated 2002).

“Also recorded” adds a separate entry of the source. Residues, ends and D or L forms follow the SMILES beside them. *: point of attachment. Cbz = O=C(OCc1ccccc1)*; CH2F = FC*

On to `CO[C@H](C/C=C\C=C\CC/C=C/C[C@H](C)/C=C/C(=C\C(=O)O)CC(=O)O)/C(C)=C\C=C(/C)C(=O)O` [bongkrekic acid], for which the “effect of inhibitor on betulinic acid-induced Δψm loss in isolated mitochondria” value in assay [1] is given as “inhibited”. The “effect of inhibitor on drug-triggered ΔΨm loss” value in assay [2] (50 μM bongkrekic acid, doxorubicin or betulinic acid) was “inhibited drug-triggered nuclear fragmentation and ΔΨm loss”. Besides, in assay [3], the “effect of CD95 blockage by F(ab′)2 anti-APO-1 on drug-induced apoptosis” value is recorded as “did not inhibit”. The “effect of inhibitor on drug-triggered nuclear fragmentation” value in assay [3] (50 μM bongkrekic acid, doxorubicin or betulinic acid, FIG. 12A) was “inhibited drug-triggered nuclear fragmentation and ΔΨm loss”.
For `COc1cccc2c1C(=O)c1c(O)c3c(c(O)c1C2=O)C[C@@](O)(C(=O)CO)C[C@@H]3O[C@H]1C[C@H](N)[C@H](O)[C@H](C)O1` [doxorubicin], in assay [1] (mitochondria from wild type or vector-only SHEP cells, 10 μg/ml betulinic acid, 30 min), the “Δψm of isolated mitochondria” value was “did not induce mitochondrial perturbations”. Besides, the “loss of ΔΨm in intact SHEP cells” value in assay [2] (0.5 μg/ml doxorubicin or 10 μg/ml betulinic acid, 24 h) was “induced loss of ΔΨm and nuclear fragmentation”. For the same molecule, the “nuclear fragmentation in intact SHEP cells” value in assay [3] (0.5 μg/ml doxorubicin or 10 μg/ml betulinic acid, 48 h, FIG. 12A) was “induced loss of ΔΨm and nuclear fragmentation”. Further, in assay [3], the “effect of CD95 blockage by F(ab′)2 anti-APO-1 on drug-induced apoptosis” value is “significantly blocked; also recorded: markedly reduced”.
`COC(=O)C[C@H](NC(=O)[C@H](C)NC(=O)[C@@H](NC(=O)OCc1ccccc1)C(C)C)C(=O)CF` [zVAD-fmk, benzyloxycarbonyl-Val-Ala-Asp-Fluoromethylketone] (Cbz-Val-Ala-Asp(OMe)-CH2F): in assay [1], the “effect of inhibitor on betulinic acid-induced Δψm loss in isolated mitochondria” value is reported as “did not interfere; also recorded: not blocked”. Also, in assay [2] (60 μM zVAD-fmk), the “effect of inhibitor on betulinic acid-induced ΔΨm dissipation” value is recorded as “had no effect” and the “effect of inhibitor on doxorubicin-induced loss of ΔΨm” value is reported as “both inhibited”. For the same molecule, the “effect of inhibitor on betulinic acid-induced apoptosis” value in assay [3] (60 μM zVAD-fmk, 10 μg/ml betulinic acid 72 h, FIG. 2D) is listed as “almost completely abrogated apoptosis”. In assay [3] (60 μM zVAD-fmk, FIG. 12A), the “effect of inhibitor on betulinic acid-induced nuclear fragmentation” value was “only affected the betulinic acid-induced nuclear fragmentation” and the “effect of inhibitor on doxorubicin-induced nuclear fragmentation” value is given as “both inhibited”.
